Test results taken from patent US20230233515A1, “PHOTODYNAMIC ANTI-GRAM-POSITIVE BACTERIAL ACTIVITY OF PHARMACEUTICAL-GRADE ROSE BENGAL” (priority 2021, published 2023).
In brackets after ≈: the same amount, converted by molar mass. Several values for one entry are separate records, joined by “and”; a condition that tells them apart may be missing. Identical values can stand only once. Like-named read-outs stand apart in the source and are kept apart here.

What was measured:
[1] = tested on: M.smegmatis 607™ (RB mutant); type: cell-based, Mycobacterium smegmatis; details: for MIC (µg/mL) against M.smegmatis 607™ (RB mutant): triplicate
[2] = tested on: M.smegmatis 607™ (wild-type); assay: MIC against M.smegmatis, dark; type: cell-based, Mycobacterium smegmatis; details: dark condition, triplicate
E.faecium NR-32065 = assay: Time-kill kinetic assay; details: twice the RB MIC; fluorescent light
Experimental: (§6) Thus, the time-course experiments on these bacteria were conducted under the fluorescent light for 2 h (0-1,130 J/cm^2) at concentrations of about 2 to about 8-fold the MIC (RB). Reference molecules used were linezolid (10 µg/mL) and ciprofloxacin (10 µg/mL) for the Gram-positive bacteria and amikacin (10 µg/mL) and meropenem (10 µg/mL) for the Gram-negative bacterium.
(§7) Time-kill kinetics assay for antimicrobial agents was performed using CLSI guidelines with a minor modification. The multiple time points in time-kill kinetics assays for RB and the reference molecules were performed. The bacterial culture grown in the broth was diluted to a concentration between 1 × 10^8 and 5.0 × 10^9 CFU/mL.
(§8) A stock dilution of the antimicrobial test substance was prepared at approximately 2- to about 8-fold the MIC values. The test compounds were inoculated with equal volumes of the specified bacteria placed in a 96-well plate. The microtiter plates were incubated at 37° C. and duration (1-120 min) under the fluorescent light (conditions are summarized in the figure legend). An aliquot of the culture medium was taken from each well and a serial dilution was performed. The diluted culture was incubated at 37° C. and CFU/mL were counted.

[3] = tested on: B.subtilis, B.cereus, and S.aureus; assay: MIC, agar dilution; type: cell-based; details: fluorescent light; entries 1-4 in Table 2; read-out: MIC (growth inhibition), agar dilution
From the text: (§1) All studies were done in triplicate. […] MBC: minimum bactericidal concentrations (µg/mL).
We observed that under the illumination conditions the MIC values of RB determined by the agar dilution method are lower than those determined by the broth dilution method (Table 1).

[4] = tested on: air-exposed biofilms of S.aureus BAA-44™; assay: Air-exposed biofilms on agar plate; type: cell-based, Staphylococcus aureus; details: for CFU/mL (Dilution 5.8 × 10^11): treated at 0 and 30 min, 1 h, 17W fluorescent light, counted after 24 h at 37° C.
Experimental: The data of Table 3, below, summarize the effect of RB on air-exposed biofilms of a MRSA, Saureus BAA-44™, under fluorescent light (17 W, 1 h, 0.57 KJ/cm^2). Spraying RB (5.0 µg/mL or 10 µg/mL solution, 250 µL (twice)) and fluorescent light exposure (for 1 h) eradicated significant viable bacteria in the biofilms with a 4-log reduction (determined at a dilution of 5.8×10^9).
The bacteria (about 1.0x10^4) were spread on an agar plate and incubated in an oven at 37° C. for 2 days. The air-exposed biofilms on an agar plate were treated with PV-10. After 1 h under fluorescent light (0.57 KJ/cm^2), saline (2 mL) was added to the agar surface. The bacterial suspension ([…]) was taken into a sterile tube, and serial dilutions were performed. The diluted sample ([…]) was spread on agar plates and incubated at 37° C. for 24 h CFU/mL were counted.

S.cerevisiae [5] = assay: Growth inhibition of yeast; type: cell-based; details: Saccharomyces cerevisiae; fluorescent light; read-out: concentration giving 50% growth inhibition
From the text: (§2) All studies were done in triplicate. […] “g” = MIC was not determined.
as §1

Vero cells = assay: Cytotoxicity with Vero cells under fluorescent light (confluence); details: fluorescent light; for confluence lost: 200 µM
Experimental: (§3) FIG. 5 is a graph showing the time in hours (h) for cell confluence at four concentrations of HB-RBf (zero µM, 100 µM, 200 µM and 300 µM) when irradiated under fluorescent light;
(§4) Cytotoxicity assays for RB in Vero cells were performed in a 24-well plate.
(§5) Images were collected by AMG EVOS xl transmitted light imaging microscope. […] (5% CO2).

[6] = as above; details: African green monkey, selectivity index (SI), cytotoxicity versus antibacterial activity, 1 h treatment time
Experimental: as §3, §4, §5

[7] = at the therapeutic concentrations; cited from earlier work
[8] = tested on: human epidermal keratinocytes (HEKa); assay: Cytotoxicity assay with HEKa cells (stratified epithelium, H&E); details: fluorescent light
Experimental: In these studies, HEKa cells were differentiated to a stratified squamous epithelium via air-liquid interface; this type of epithelium can be applied as a physiological tissue to study epidermal necrolysis by the treatment of RB.
Cytotoxicity of PV-10 against Human Epidermal Keratinocytes (HEKa) were evaluated in a hanging cell culture insert in a 24-well plate. HEKa (4x10^5 cells/mL, 0.5 mL) cell suspension) was placed into the insert where the outside of the inserts was filled with EpiGRO™ Complete Culture Media (1.5 mL) [67]. The cell suspension was incubated at 37° C. overnight (about 18 hours).
The next day, without removing the original medium, an additional 0.5 mL of the medium was added to the inside of each insert and incubated at 37° C. for 2 days. High quality HEKa approached 100% confluence by the third day of submerged culture. On the 4th day, the media was gently aspirated from each insert. The skin cell cultures were maintained at the air/liquid interface.
The skin culture was incubated at 37° C. for an additional 10 days. During the 10-day incubation, the media was changed every other day and any bubbles were removed from beneath the insert membrane.
After 25 days of 3D skin culture, approximately 6 to 8 layers of live epithelium were produced. […]

a S.aureus strain = details: 19.5 µg/mL RB, 10 min visible light, light fluence dose 30 J/cm^2; cited from earlier work
S.aureus 6538™ = assay: Time-kill kinetic assay; details: in 1 minute; 4.6 × 10^8 CFU; fluorescent light
Experimental: as §6, §7, §8

S.aureus BAA-44 = assay: Time-kill kinetic assay; details: twice the RB MIC; fluorescent light
Experimental: as §6, §7, §8

[9] = tested on: biofilms of S.aureus 71080 (VRS8); assay: Anti-biofilm assay; type: cell-based, Staphylococcus aureus; details: fluorescent light
Experimental: Here, we examined efficacy of RB against biofilms of a drug-susceptible S.aureus 6508™, and drug-resistant S.aureus 71080 (VRS8) and E.faecium NR-32065 under the florescent light and dark conditions.
The biofilms were generated on 12-well plates by incubating each bacterium for five days. The planktonic bacteria in the culture media were gently removed, and fresh media were placed. […] An aliquot of each culture was diluted (x10,000 or x100,000) on agar plates at 37° C. for 24 h. CFU/mL was counted [47, 69].

[10] = tested on: biofilms of S.aureus 6508; assay: Anti-biofilm assay; type: cell-based, Staphylococcus aureus; details: for viable bacteria in biofilm: dark condition
Experimental: We applied linezolid as a positive control at very high concentration of 600 µg/mL (>100xMIC for the planktonic cells) in our biofilm assays.
The biofilms were generated on 12-well plates by incubating each bacterium for five days. The planktonic bacteria in the culture media were gently removed, and fresh media were placed. […] An aliquot of each culture was diluted (x10,000 or x100,000) on agar plates at 37° C. for 24 h. CFU/mL was counted.

S.cerevisiae [11] = assay: Minimal bactericidal concentration (MBC) assay
B.cepacia UCB717 = assay: Time-kill kinetic assay; details: fluorescent light
Experimental: as §6, §7, §8

Enterococcus faecalis = assay: MIC, broth dilution; type: cell-based; details: drug-susceptible and drug-resistant incl. vancomycin-resistant strains; entries 17-21
From the text: as §2

Gram-positive bacteria = assay: MIC, broth dilution; type: cell-based
From the text: as §2

Mycobacterium spp. = assay: MIC, broth dilution; type: cell-based
From the text: as §2

Gram-negative bacteria = assay: MIC, broth dilution; type: cell-based; details: dark condition; all Gram-negative bacteria of Table 1, entries 31-47
From the text: as §2

[12] = tested on: Gram-positive Bacillus spp.; assay: MIC, broth dilution; type: cell-based; details: illumination; entries 1-3 of Table 1
From the text: as §2

Staphylococcus aureus = assay: MIC, broth dilution; type: cell-based
From the text: as §2

[13] = tested on: Staphylococcus epidermidis; assay: MIC, broth dilution; details: aerobic condition; entry 16
Experimental: (§9) We have reinvestigated the bactericidal activity of pharmaceutical-grade of RB against a battery of Gram-positive and -negative aerobic bacteria including Mycobacterium spp. and a Saccharomyces sp. under different light sources (fluorescence, LED, and sun light) and in a dark condition. Fluorescent light used was 17W (1,647 lumens, 63.8 cm^2) and LED was a 9.5 W (800 lumens, 28.3 cm^2), specifics about which are discussed hereinafter.
(§10) Minimum inhibitory concentrations (MICs) were determined by broth dilution microplate alamar blue assay or by OD measurement. All compounds were stored in DMSO or saline (1 mg/100 µL concentration). This concentration was used as the stock solution for all MIC studies. Each compound from stock solution was placed in the first well of a sterile 96 well plate and a serial dilution was conducted with the culturing broth (total volume of 10 µL). The bacterial suspension at log phase (190 µL) was added to each well (total volume of 200 µL), and was incubated for 24 h at 37° C.

[14] = tested on: three E.coli, two Pseudomonas aeruginosa, two Klebsiella pneumoniae, and two Acinetobacter baumannii strains; assay: MIC, broth dilution; details: entries 31-39
Experimental: as §9, §10

[15] = tested on: Burkholderia, Salmonella, and Proteus spp.; assay: MIC, broth dilution; details: fluorescent or LED lights
Experimental: as §9, §10

[16] = Behaviour in water at stomach pH; type: physicochemical; details: water solution having the acidic pH value of the human stomach
From the text: For example, the highly acidic gastric environment (pH 1.5-2 in the fasted state; pH 3-6 in the fed state) rises rapidly to about pH 6 in the duodenum and increases along the small intestine to pH 7.4 at the terminal ileum. The pH value in the cecum drops just below pH 6 and again rises in the colon reaching pH 6.7 at the rectum [Hua, Front Pharmacol 11: Article 524 (April 2020)].

S.aureus 71080 (VRS8) = assay: Time-kill kinetic assay; details: twice the RB MIC; fluorescent light
Experimental: as §6, §7, §8

[17] = tested on: Gram-positive and -negative bacteria; assay: Time-kill kinetics, general statements
Experimental: as §7
A stock dilution of the antimicrobial test substance was prepared at approximately 2- to about 8-fold the MIC values. The test compounds were inoculated with equal volumes of the specified bacteria placed in a 96-well plate. The microtiter plates were incubated at 37° C. and duration (1-120 min) under the fluorescent light (conditions are summarized in the figure legend). An aliquot of the culture medium was taken from each well and a serial dilution was performed. The diluted culture was incubated at 37° C. and CFU/mL were counted. Bactericidal activity was defined as greater than 3 log-fold decrease in colony forming units [64].

Bacteroides fragilis = assay: MIC, broth dilution; details: anaerobic Gram-negative bacterium
From the text: We have reinvestigated the bactericidal activity of pharmaceutical-grade of RB against a battery of Gram-positive and -negative aerobic bacteria including Mycobacterium spp. and a Saccharomyces sp. under different light sources (fluorescence, LED, and sun light) and in a dark condition. Fluorescent light used was 17W (1,647 lumens, 63.8 cm^2) and LED was a 9.5 W (800 lumens, 28.3 cm^2), specifics about which are discussed hereinafter. In the studies under sunlight through an architectural window, the 96-well plates were placed on the east side of the building (the BSL-2 lab on the 5th floor, College of Pharmacy, University of Tennessee Health Science Center, Memphis, TN, USA) and the growth inhibition studies were performed between 8 AM and 5 PM (on June 18th, 2021).
Minimum inhibitory concentrations (MICs) were determined by broth dilution microplate alamar blue assay or by OD measurement. All compounds were stored in DMSO or saline (1 mg/100 µL concentration). This concentration was used as the stock solution for all MIC studies. Each compound from stock solution was placed in the first well of a sterile 96 well plate and a serial dilution was conducted with the culturing broth (total volume of 10 µL). […] The absorbance of each well was also measured at 570 and 600 nm via UV-Vis.

Streptococcus pneumoniae = assay: MIC, broth dilution; details: entry 24
Experimental: as §9, §10

Streptococcus salivarius = assay: MIC, broth dilution; details: entry 23
Experimental: as §9, §10

## NC[C@H]1O[C@@H](O[C@H]([C@H]2O[C@@H](n3ccc(=O)[nH]c3=O)[C@H](O)[C@@H]2O)[C@H](NCCCC(=O)NCc2ccc(N3CCC(Oc4ccc(OC(F)(F)F)cc4)CC3)cc2)C(N)=O)[C@H](O)[C@@H]1O [APPB, aminouridyl phenoxypiperidinylbenzyl butanamide]
[1]; dark condition
  susceptibility of the RB-resistant strain to the drug: susceptible
  MIC (µg/mL) against M.smegmatis 607™ (RB mutant): 0.20 µg/mL (≈ 0.227 µM)
[2]
  MIC (µg/mL) against M.smegmatis 607™ (wild-type): 0.20 µg/mL (≈ 0.227 µM)

## NCC[C@H](O)C(=O)N[C@@H]1C[C@H](N)[C@@H](O[C@H]2O[C@H](CN)[C@@H](O)[C@H](O)[C@H]2O)[C@H](O)[C@H]1O[C@H]1O[C@H](CO)[C@@H](O)[C@H](N)[C@H]1O [Amikacin, amikacin]
[1]; dark condition
  susceptibility of the RB-resistant strain to the drug: susceptible
[2]; Mycolicibacterium smegmatis
  MIC: 0.78 µg/mL (≈ 1.33 µM)

## CCc1cc(C(N)=S)ccn1 [Ethionamide, ethionamide]
[1]
  susceptibility of the RB-resistant strain to the drug: susceptible

## NNC(=O)c1ccncc1 [Isoniazid, isoniazid]
[1]; dark condition
  susceptibility of the RB-resistant strain to the drug: cross-resistance

## O=C([O-])c1c(Cl)c(Cl)c(Cl)c(Cl)c1-c1c2cc(I)c(=O)c(I)c-2oc2c(I)c([O-])c(I)cc12.[Na+].[Na+] [RB, 4,5,6,7-tetrachloro-2′,4′,5′,7′-tetraiodo-fluorescein]
E.faecium NR-32065
  time to kill: ≤ 2 min
[3]
  MIC: 0.01 to 0.1 µg/mL
[4]; first column, PV-10 5.0 µg/mL
  colonies counted (Dilution 5.8 × 10^11): 0 (0 colony)
  CFU/mL (Dilution 5.8 × 10^11): 0 (0 colony) CFU/mL
[4]; first column, PV-10 10 µg/mL
  colonies counted (Dilution 5.8 × 10^11): 0 (0 colony)
  CFU/mL (Dilution 5.8 × 10^11): 0 (0 colony) CFU/mL
[4]; second column, PV-10 5.0 µg/mL
  colonies counted (Dilution 5.8 × 10^11): 35 colonies
  CFU/mL (Dilution 5.8 × 10^11): 9.4 × 10^10 CFU/mL
[4]; second column, PV-10 10 µg/mL
  colonies counted (Dilution 5.8 × 10^11): 17 colonies
  CFU/mL (Dilution 5.8 × 10^11): 4.5 × 10^10 CFU/mL
[4]; spray 5.0 or 10 µg/mL solution, 250 µL twice, fluorescent light 1 h, dilution of 5.8×10^9
  log reduction of viable bacteria in air-exposed biofilms: 4 log
S.cerevisiae [5]
  IC50: 1.6 µg/mL
Vero cells; 100 µM (97.4 µg/mL), 4 h
  confluency lost: ~50%
Vero cells; 100 µM, 1 h exposure
  state of the monolayer: intact
Vero cells; 1 h
  confluence lost: About 18%
  concentration tolerated by Vero cells: 100 to 200 µM
Vero cells; 4 h
  confluence lost: over 80%
Vero cells; 300 µM
  time to complete loss of the cell viability: ≤ 2 h
[6]; for Gram-negatives
  selectivity ratio at 1 h: > 7.9
[6]; for Gram-positives
  selectivity ratio at 1 h: > 62.5
[7]
  toxicological effects: does not have systemic toxicological effects, mutagenic potential, and female reproductive and development effects
[8]; 200 µM, 1 h
  necrosis on the surface tissue: Some necrosis
[8]; 10 and 100 µM, 1 h exposure
  necrosis of the stratum corneum cells: did not cause necrosis
A S.aureus strain
  loss of viability: about 80%
S.aureus 6538™
  log reduction of CFU: 6 log
S.aureus BAA-44
  time to kill: ≤ 2 min
[9]; 10.0 µg/mL
  biofilm, log reduction of viable bacteria: over 6 log
[9]; 30.0 µg/mL or higher
  CFU counted in biofilm: No CFU were counted
[10]; 50.0 µg/mL (2xMIC under dark)
  viable bacteria in biofilm: significantly reduced the number of viable bacteria
[10]; 60.0 µg/mL (77×MIC), fluorescent light
  biofilm eradication, log reduction: > 5 log
[10]; 100 µg/mL, fluorescent light
  CFU counted in biofilm: No CFU were counted
[10]; 1,000 µg/mL
  viable bacteria in biofilm: No viable bacteria
S.cerevisiae [11]; dark condition
  concentration not killing the yeast: > 500 µg/mL
S.cerevisiae [11]; fluorescent light
  MBC (to kill >99% of the yeast): 400 µg/mL
B.cepacia UCB717; 2-times the MIC
  time required for a 5-log reduction: 40 minutes
B.cepacia UCB717; 4-times the MIC, in 5 minutes, 2.9 × 10^8 CFU
  log reduction of the bacteria: > 5 log
Enterococcus faecalis
  MIC (killing concentration): 0.39 to 0.78 µg/mL
Gram-positive bacteria; dark condition, all Gram-positive bacteria of entries 1-23
  MIC: 25 to 100 µg/mL
Gram-positive bacteria; under illumination conditions (fluorescent, LED), wide range of Gram-positive bacteria, entries 1-23 in Table 1
  MIC: 0.2 to 3.1 µg/mL
Mycobacterium spp.; dark conditions
  killing concentration (MIC): 25000 to 50000 µg/mL
Mycobacterium spp.; illuminated conditions, 5 Mycobacterium spp., entries 25-29
  MIC: 12.5 to 25 µg/mL
Mycobacterium spp.; illumination conditions
  killing concentration (MIC): 12500 to 25000 µg/mL
Gram-negative bacteria
  MIC: > 100 µg/mL
[12]
  MIC (killing concentration): 0.39 to 0.78 µg/mL
Staphylococcus aureus; 7 methicillin-resistant S.aureus (MRSA) strains, fluorescent or LED light
  MIC (killing concentration): 0.78 to 3.1 µg/mL
Staphylococcus aureus; MIC standard strain, illumination, entry 4
  concentration required to kill >99% of bacteria: 1.6 µg/mL
Staphylococcus aureus; vancomycin-resistant S.aureus strains, either lighting condition
  MIC (killing concentration): below 1.0 µg/mL
[13]
  bactericidal activity: effectively killed
[14]
  MIC: 50 µg/mL and > 100 µg/mL
[15]
  MIC (killing concentration): 3.13 to 12.5 µg/mL
[16]
  appearance of solution at acidic pH: rapid clouding of the admixture and clumping
S.aureus 71080 (VRS8)
  time to kill: ≤ 2 min
[17]; Gram-negative bacteria
  time to kill: 5 min
[17]; Gram-positive bacteria
  time to kill: 1 to 2 min
[17]; within 2 hours of contact, preliminary studies
  log reduction: 6 log
Bacteroides fragilis
  concentration tolerated: ≥ 100 µg/mL
Streptococcus pneumoniae
  susceptibility to RB: showed resistance
Streptococcus salivarius
  susceptibility to RB: susceptible

## CC(=O)NC[C@H]1CN(c2ccc(N3CCOCC3)c(F)c2)C(=O)O1 [linezolid, reference compound]
[10]; linezolid at 600 µg/mL, compared with RB 30.0 µg/mL
  biofilm eradication efficacy: same level of efficacy

## capreomycin
[1]; dark condition
  susceptibility of the RB-resistant strain to the drug: susceptible
  MIC (µg/mL) against M.smegmatis 607™ (RB mutant): 3.13 µg/mL
[2]
  MIC (µg/mL) against M.smegmatis 607™ (wild-type): 3.13 µg/mL
